From US5441983A, “Treatment of infection by enveloped virus with calix(N)arene compounds” (Genelabs Incorporated, priority 1992, dated 1995)
Values after ≈ are worked out from the molar mass of the structure shown.

How the values were obtained:
HSV-1 KOS(PMEA)' = assay: Inhibition of viral yield, drug-resistant HSV-1 KOS(PMEA)'; conditions: Human alphaherpesvirus 1, HeLa, read-out: ID90
Experimental: (§13) These compounds tested were the nucleoside analogs acyclovir (ACV), ganciclovir (DHPG), phosphonoformate (PFA), and phosphomethoxyethyladenine (PMEA). Inhibition of viral yield was determined, as above, by infecting Hela cells in the presence of wild type or drug-resistant strains of HSV-1 or HSV-2, and serial dilutions of a selected anti-viral compound, and infecting Vero cells with serial dilutions of the Hela cell lysate, as above.
(§14) The KOS (HSV-1) and 333 (HSV-2) are wild type viruses; the KOS(PMEA)' and KOS(PFA)' are drug-resistant HSV-1 strains having a DNA polymerase mutation. The 333(DHPG) strain is a drug-resistantHSV-2 strain having a thymidine kinase mutation.
(§15) The following strains of HSV-1 and HSV-2 virus were used: KOS, a wild type HSV-1 virus; KOS (PMEA) and KOS (PFA), both drug-resistant HSV-1 viruses having a DNA polymerase mutation; 333, a wild type HSV-2 HSV-2 virus, and 333 (DHPG), a drug-resistant HSV-2 virus having a thymidine kinase mutation.
(§16) After growth at 37° C. for 24 hours in 2 ml of RPMI-1640 containing 2% FCS and penicillin and streptomycin (P/S), the cells were frozen at -70° C. until the time for titration. The cells were freeze/thawed 3 times to release virus from the cells, serially diluted 10 fold, and the serial dilutions were added to Vero cells in culture. After 2 hours incubation at 37° C. the virus was removed and 0.5 ml methycellulose (4K cps) in RPMI-1640 and 2% FCS+P/S was added. Two days later, the medium was removed. The cells were stained in 0.8% crystal violet in 50% ethanol. The plaques formed were counted and the titer was calculated from the fold of dilutions. From the drug dose response, the concentration of each drug required to effect a 90% inhibition of virus yield, the IC90 concentration was determined.

HSV-1 KOS = assay: Inhibition of viral yield, wild type HSV-1 KOS; conditions: Human alphaherpesvirus 1, HeLa, read-out: ID90
HSV-2 [1] = assay: Topical treatment of genital HSV-2 infection, guinea pigs, second study
Experimental: In another study using the guinea pig genital model described above, animals were infected with HSV-2, then treated with KY-1 or Y-1 topically at concentrations of 2% or 5% drug. […] Animals were treated and scored daily for severity of infection for 19 days.
(§17) The MS strain of HSV-2 was utilized for the experimental animal infection. Female Hartley strain guinea pigs (Charles River Breeding Laboratories, Kingston, NY) weighing 250-300 g were inoculated intravaginally with 2.0×10^5 plaque-forming units of HSV-2 one hour after being swabbed for removal of vaginal secretions.
Formulations of KY-1 or Y-1 were prepared by dissolving the compound in a 1.5% methyl cellulose solution such that final concentration of compound was 2% or 5% (wt/wt). Control animals were given either no treatment (N=10 animals) or treatment with placebo (1.5% methylcellulose solution).
(§18) To determine the effect of therapy on the development and spread of external genital lesions, lesion severity was scored on a 0-5+ scale through the primary infection period (19-21 days). Lesion score-day areas and virus titer-day areas under the curve, and peak lesion scores and peak virus titers between untreated and placebo-treated or placebo-treated and drug-treated animals were compared using the Mann-Whitney U range sum test. A p-value of 0.05 or less was considered significant.
Animals were scored daily for 19 days following inoculation for presence of lesions and severity of lesions (on a 0-5+ point scale). Lesion scores were tabulated as area under the curve of daily lesion score vs. time (days) and peak lesion score observed. A known antiviral agent, acyclovir (ACV) was administered in a 5% formulation to 8 animals as a positive control in the study.

HSV-2 333 (DHPG)' = assay: Inhibition of viral yield, drug-resistant HSV-2 333(DHPG)'; conditions: Human alphaherpesvirus 2, HeLa, read-out: ID90
Experimental: as §13, §14, §15, §16

HSV-1 [2] = assay: HSV-1 viral yield inhibition by combined drug exposure; format: cell-based; conditions: HSV-1, FIG. 34A
Source text: With either drug alone, a maximum decrease in viral yield was slightly less than three logs (orders of magnitude).
Two days later, the medium was removed.

HSV-2 [3] = assay: Topical treatment of genital HSV-2 infection, guinea pigs, first study; conditions: 5%
Experimental: Briefly, female guinea pigs were infected intravaginally with HSV-2, then treated topically three times daily beginning 6 hours or 48 hours after inoculation with HSV-2, as described in Example 13. […] Swabs of vaginal secretion were obtained and assayed for viral activity by a standard CPE assay. The severity of genital lesions was scored on a 0-5+ scale through the period of primary infection (21 days).
as §17
In the first study, groups of 10 guinea pigs were treated topically (0.1 ml intravaginally +0.1 ml on external genital skin) three times daily (approximately every eight hours) for seven days beginning 6 h or 48 h after inoculation with HSV-2.
To determine the effect of treatment on vaginal viral replication, swabs of vaginal secretions were obtained on days 1, 3, 5, 7 and 10 after HSV inoculation, placed in a tube containing 2.0 ml of media, vortexed and frozen at -70° C. until titrated for HSV-2. When all samples were collected, they were thawed, diluted serially and HSV-2 titers determined using rabbit kidney cells in a microtiter CPE assay.
as §18

HSV-2 333 = assay: Inhibition of viral yield, wild type HSV-2 333; conditions: Human alphaherpesvirus 2, HeLa, read-out: ID90
Experimental: as §13, §14, §15, §16

HSV-1 KOS (PFA)' = assay: Inhibition of viral yield, drug-resistant HSV-1 KOS(PFA)'; conditions: Human alphaherpesvirus 1, HeLa, read-out: ID90
HIV-HXB = assay: Inhibition of syncytia formation, HIV-HXB (HTLV-IIIB)
Experimental: Briefly, cells chronically infected with HTLV-IIIB or RF-II HIV strains were incubated in the presence of serial dilutions of the selected KY compound, then further cocultured with indicator cells. The extent of syncytia formation was scored under phase microscopy.
Representative calix(n)arene compounds from Table 2 were tested for inhibition of cytopathic effects in cells infected with one of two HTLV-III strains, HTLV-IIIB and RF-II strains, as described in Example 12, and in the subsection above.
Human CD4^+ indicator cells (VB) and chronically infected H9 cells were maintained in RPMI-1640 medium supplemented with 5% fetal calf serum, 100 Units of penicillin per ml and 100 μg of streptomycin per ml at 37° C. in a humidified incubator containing 7% CO2.
For the fusion assay, serial dilutions between 1:2 and 1:2^8 of a selected KY compound, 1 mg/ml in PBS were made in a 96 well round bottom plate. The diluted KY compound was transferred to a 96 well flat-bottom plate. To each well was added 25 μg chronically infected H9 cells (at 2×10^6, cells/ml), or cells chronically infected with RF-II strain HIV, followed by incubation at 37° C. for 45 minutes. To each well was then added 25 μl VB cells (about 5×10^4 cells), and the cells and virus isolates were cocultured for 18 hours in a humid 5% CO2 atmosphere.

HSV-1 [4] = assay: Topical treatment of ocular HSV-1 infection, rabbits
Experimental: New Zealand white rabbits were acclimated for a minimum of two days prior to inoculation to allow the animals to accommodate to conditions in the vivarium facility. After the accommodation period, animals received a slit lamp ocular examination to exclude any animals with preexisting anterior segment ocular defects. Animals were bilaterally inoculated topically with an 80 μl drop of Minimal Essential Medium (MEM; Gibco) containing 10^5 pfu/ml McKrae strain HSV-1; eyes were massaged for 30 seconds. Animals were replaced individually in cages.
On day 4 post inoculation (PI), animals were evaluated by slit lamp microscopy. Corneal epithelial, iris, and conjunctival disease were graded on an increasing scale of severity from 0+ to 4+. After evaluation, animals were divided into 4 groups of 5 animals with matched corneal, stromal and conjunctival involvement. Topical therapy was initiated immediately after animal grouping. Therapy groups included:
Group #1: 5 rabbits, Y-1 topical therapy (6.25 μg/50 μl) 5×/dayfor 4 days;
Group #2: 5 rabbits, Y-1 topical therapy (12.5 μg/50 μl) 5×/dayfor 4 days;
Group #3: 5 rabbits, Y-1 topical therapy (18.75 μg/50 μl) 5×/day for 4 days;
Group #4: 5 rabbits, placebo therapy (sterile water) 5×/day for 5 days.
All Y-1 doses were formulated to contain these concentrations in a volume of 50 μl (a standard eye drop).
Topical therapy with 0-19 μg Y-1 in 50 μl was initiated on day 4 post-inoculation (PI) and continued to day 7 PI. All animals received daily ocular slit lamp evaluations from day 3 through day 7 PI. The ocular HSV-1 induced disease severity was recorded daily.
Eyes of all animals were additionally sampled for the presence of infectious HSV-1 on days 0 (pre-inoculation), 3, 5, and 7 PI. Briefly, tear film was obtained by swabbing the lower and upper conjunctival sacs and retaining the swab in the nasal fornix for 10 seconds. The swabs were eluted individually in Hank's Buffered Saline (HBSS, Gibco Laboratories). Fifty microliter aliquots of the virus-HBSS eluate was adsorbed onto confluent HFF cell monolayers for 5 minutes. Monolayers were hydrated with Minimal Essential Medium (MEM; Gibco Laboratories), incubated at 37° C. and observed daily for two weeks to detect cytopathology consistent with HSV infection (HSV CPE).
On day 7 PI (sacrifice), the corneal epithelium was scraped from the eyes and HSV was recovered on HFF cell monolayers. Corneal epithelial co-cultures were evaluated daily by inverted light microscopy.

HSV-1 [5] = assay: Plaque reduction assay, HSV-1, Vero cells; format: cell-based, HSV-1 (Kos-1)
Experimental: (§1) used in Table 3 were further tested for activity against HSV infection in
(§2) a plaque reduction assay, as detailed in Example 6. Here Vero cells, after
(§3) overnight incubation, were exposed to serial dilutions of KY compound,
(§4) from 0.625-10 μg/ml, and HSV-1 or HSV-2 virus for two hours. After
(§5) washing to remove drug and extracellular virus, the cells were further
(§6) incubated for 2 days, then stained and counted for plaque formation.
(§7) Percent inhibition was determined by dividing plaques produced by total
(§8) number of plaques in infected, untreated controls. From the concentration
(§9) effect curve of plaque inhibition (expressed as percent of control), the
(§10) concentration of compound required to produce 50% plaque reduction,
(§11) IC50, was determined. The IC50 values for infection by HSV-1 and
(§12) HSV-2 infection is given in the right-hand columns in Table 3. With

HSV-1 and HSV-2 = assay: Viral yield inhibition, HeLa cells, plaque count on Vero cells; conditions: virus yield or CPE assays
Experimental: The ability of selected naphthalene-subunit compounds to inhibit HSV-1 and HSV-2 viral yields at selected drug concentrations up to 10 μg/ml was assessed in the viral inhibition assay described in Example 7. Briefly, cultured Hela cells were exposed to serially diluted KY compound and virus, allowed to grow for 24 hours, then freeze/thawed 3 times to release virus particles. Vero cells were infected serial dilutions of the viral lysates were assayed for plaque counts as described in Example 6.
1×10^6 HeLa S3 were plated in 25 T flasks in 5 ml RPMI-1640+5% FCS+P/S. 24 hours later, the medium was aspirated and replaced with 6×10^6 PFU HSV-1 or HSV-2, and serial dilutions of selected KY compounds, at 10, 5, 2.5, 1.25, and 0.625 μg/ml drug. After growth at 37° C. for 24 hours in 2 ml of RPMI-1640 containing 2% FCS and P/S, the cells were frozen at -70° C. until the time for titration. The cells were freeze/thawed 3 times to release virus from the cells, and serially diluted 10 fold.
1×10^5 Vero cells were plated in each well of 24 well multi-dish in 1 ml RPMI-1640+5% FCS+P/S+0.1% methylcellulose (15 cps). On the second day, after removal of the medium, the 10 fold serially diluted virus in 100 μl was added in duplicate. […] The plaques formed were counted and the titer was calculated from the fold of dilutions.

HSV-2 [6] = assay: Plaque reduction assay, HSV-2, Vero cells; format: cell-based, HSV-2 (333); conditions: Human alphaherpesvirus 2, Vero
Experimental: as §1, §2, §3, §4, §5, §6, §7, §8, §9, §10, §11, §12

coagulation = assay: Anti-coagulant activity after oral and intravenous administration; format: in vivo; conditions: protamine sulfate intravenous
Experimental: One of the considerations in the administering the composition, particularly when the drug is administered parenterally or orally, is systemic side effects. Studies conducted in support of the present invention indicate that the calix(n)arene compound, particularly the sulfonic acid compound, may show anti-coagulant activity after oral and intravenous administration. […] The protamine administration is timed to correspond to highest blood levels of the calix(n)arene compounds. In a typical method, a dose of protamine equivalent to about 1 mg per 100 heparin anticoagulant units is administered intravenously simultaneously with IV administration of the calix(n)arene, or 1-2 hours after oral administration of the macrocyclic drug. It is generally recommended that protamine be infused slowly (i.e., not more than a total of 50 mg/10 minutes).

For `Nc1nc2c(ncn2COCCO)c(=O)[nH]1` [ACV, acyclovir, reference compound], the IC90 (HSV-1 KOS(PMEA)') was 380 µM, the IC90 (HSV-1 KOS) was 14 µM and the “% Animals with Lesions” value (HSV-2 [1]; 5%, 24 h) was 37.5%. The “Lesion Score (AUC)” value (HSV-2 [1]; 5%, 24 h) was 11.7, the “Mean Peak lesion score” value (HSV-2 [1]; 5%, 24 h) was 1.5 and the IC90 (HSV-2 333 (DHPG)') was > 100 µM. For the same molecule, the “maximum decrease in viral yield, either drug alone” value (HSV-1 [2]) was “less than three”, the “Lesion score Area Under Curve” value (HSV-2 [3]; +6 h) was 2.7 and the “Mean Peak lesion score” value (HSV-2 [3]; +6 h) was 0.6. The “Lesion score Area Under Curve” value (HSV-2 [3]; +48 h) was 45.8, the “Mean Peak lesion score” value (HSV-2 [3]; +48 h) was 3.8 and the IC90 (HSV-2 333) was ~10 µM. The IC90 (HSV-1 KOS (PFA)') was 100 µM.
With `O=S(=O)(O)c1cc2c(O)c(c1)Cc1cc(S(=O)(=O)O)cc(c1O)Cc1cc(S(=O)(=O)O)cc(c1O)Cc1cc(S(=O)(=O)O)cc(c1O)Cc1cc(S(=O)(=O)O)cc(c1O)Cc1cc(S(=O)(=O)O)cc(c1O)Cc1cc(S(=O)(=O)O)cc(c1O)Cc1cc(S(=O)(=O)O)cc(c1O)C2` [Y-1] the “lesions versus placebo, in words” value (HSV-2 [1]; 2% or 6%, 6 h treatment) was “reduced numbers of animals exhibiting lesions, decreased mean lesion scores and decreased peak lesion score”, the “% Animals with Lesions” value (HSV-2 [1]; 2%, 6 h) was 66.7% and the “Lesion Score (AUC)” value (HSV-2 [1]; 2%, 6 h) was 16.9. For the same molecule, the “Mean Peak lesion score” value (HSV-2 [1]; 2%, 6 h) was 1.8, the “% Animals with Lesions” value (HSV-2 [1]; 2%, 24 h) was 60% and the “Lesion Score (AUC)” value (HSV-2 [1]; 2%, 24 h) was 22.0. The “Mean Peak lesion score” value (HSV-2 [1]; 2%, 24 h) was 2.3, the “% Animals with Lesions” value (HSV-2 [1]; 6%, 6 h) was 30% and the “Lesion Score (AUC)” value (HSV-2 [1]; 6%, 6 h) was 8.1. The “Mean Peak lesion score” value (HSV-2 [1]; 6%, 6 h) was 1.2, the “% Animals with Lesions” value (HSV-2 [1]; 6%, 24 h) was 40% and the “Lesion Score (AUC)” value (HSV-2 [1]; 6%, 24 h) was 14.7. The “Mean Peak lesion score” value (HSV-2 [1]; 6%, 24 h) was 1.8, the “lesions, in words” value (HSV-2 [1]; 24 hours post-infection, 6% KY-1 or Y-1, 2% KY-1) was “reduced numbers of lesion bearing animals and reduced severity of lesions” and the “relative activity against HXB strain, in words” value (HIV-HXB; HXB strain) was “comparable activities against the HXB strain”. The IC50 (HIV-HXB; Human immunodeficiency virus 1, read-out: HIV-HXB IC50) was 16 µg/mL (≈ 10.7 µM), the “maximum decrease in viral yield, either drug alone” value (HSV-1 [2]) was “less than three” and the “ocular disease, 12.5 μg/50 μl” value (HSV-1 [4]; 12.5 μg/50 μl topical) was “most effective ocular therapy”. The “corneal epithelial HSV-1 induced disease, 18.75 μg/50 μl” value (HSV-1 [4]; 18.75 μg/50 μl topical) was “effective in reducing the development of corneal epithelial HSV-1induced disease”, the “toxicity to corneal epithelial surface, conjunctiva, iris and stroma” value (HSV-1 [4]; 18.75 μg/50 μl, days 6 and 7) was “somewhat toxic to the corneal epithelial surface and to the conjunctiva, iris and stroma” and the “ocular disease severity versus placebo” value (HSV-1 [4]; all concentrations, topical) was “effective in reducing the development of HSV-1 induced ocular disease”. The “viral titer in epithelial scrapings” value (HSV-1 [4]; day 7) was “dose-dependent reduction in viral titer”, the IC50 (HSV-1 [5]; Human alphaherpesvirus 1, Vero, plaque reduction, Vero cells) was 7 µg/mL (≈ 4.7 µM) and the “relative anti-HSV activity, in words” value (HSV-1 [5]; plaque reduction HSV-1 and HSV-2) was “somewhat more active than the corresponding n=4 and n=6 compounds”. The ED90 concentration (HSV-1 and HSV-2) was 12.5 μg/50 μl and the IC50 (HSV-2 [6]) was 7.2 µg/mL (≈ 4.83 µM).
For protamine sulfate, the “blocking of anticoagulant effect of calix(n)arene” value (coagulation) was “effectively blocked”.
